In data set [1] the target is T1, Human Neuropeptide Y2 Receptor (Homo sapiens, UniProt P49146).
T1 construct: purchased CHEMICON HTS066M
T1 sequence (P49146 1-381): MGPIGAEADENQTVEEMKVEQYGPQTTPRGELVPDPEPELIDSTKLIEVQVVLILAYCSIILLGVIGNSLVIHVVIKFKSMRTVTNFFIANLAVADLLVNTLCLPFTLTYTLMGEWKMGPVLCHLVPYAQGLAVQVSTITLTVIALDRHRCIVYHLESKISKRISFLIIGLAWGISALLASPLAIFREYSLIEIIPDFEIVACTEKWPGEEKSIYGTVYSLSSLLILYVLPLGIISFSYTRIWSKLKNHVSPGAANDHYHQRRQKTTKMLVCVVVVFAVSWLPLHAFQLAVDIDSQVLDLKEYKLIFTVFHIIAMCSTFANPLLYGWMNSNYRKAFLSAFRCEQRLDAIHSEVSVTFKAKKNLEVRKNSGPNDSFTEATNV
Put plainly: Radioligand binding competition assay (RLB). The conditions noted are these: Table 3, 125I-PYY(1-36) competition; read-out: Ki. A digest of the protocol: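 Filtration binding assay on human Y2 receptor membrane preparation, 0.5 μg protein per well, in 50 mM HEPES pH 7.4 containing 5 mM MgCl2, 1 mM CaCl2 and 0.2% ovalbumin. Plates shake 2 h at room temperature before harvest and scintillation counting.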

A short description of the next data set: Solubility determination. The note with it: for Sol6: pH 6; for Sol7: pH 7. The gist of the method:
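First, TFA-salt peptide was added to 0.1 M sodium diphosphate (pH 6.4 or 7.0) to 10 mg/ml and shaken 2 h at room temperature. Next, insoluble material was filtered off. Finally, filtrate and control, each 1 mg/ml in 50% acetonitrile, were compared by reversed-phase chromatography.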

Some results are limits rather than exact numbers.

The Ki is the dissociation constant of the complex between target and ligand, obtained from inhibition or displacement.

For `CC(C)CC(=O)N[C@@H](C)C(=O)N1CCC[C@H]1C(=O)N[C@@H](CCC(=O)O)C(=O)N[C@@H](CCCCNC(=O)CCCCCNC(=O)CC[C@H](NC(=O)CCCCCCCCCCCCCCCCC(=O)O)C(=O)O)C(=O)N1CCC[C@H]1C(=O)N[C@@H](CCC(=O)O)C(=O)N[C@@H](CCC(=O)O)C(=O)N[C@@H](CC(=O)O)C(=O)N[C@@H](C)C(=O)N[C@H](C(=O)N[C@@H](CCC(N)=O)C(=O)N[C@@H](CCC(=O)O)C(=O)N[C@@H](CCC(=O)O)C(=O)N[C@@H](CC(C)C)C(=O)N[C@@H](CCC(N)=O)C(=O)N[C@@H](CCCNC(=N)N)C(=O)N[C@@H](Cc1ccc(O)cc1)C(=O)N[C@@H](Cc1ccc(O)cc1)C(=O)N[C@H](C(=O)N[C@@H](CO)C(=O)N[C@@H](CC(C)C)C(=O)N[C@@H](CCCNC(=N)N)C(=O)N[C@@H](Cc1c[nH]cn1)C(=O)N[C@@H](Cc1ccc(O)cc1)C(=O)N[C@@H](Cc1ccc(O)cc1)C(=O)N[C@@H](CC(N)=O)C(=O)N[C@@H](Cc1c[nH]c2ccccc12)C(=O)N[C@@H](CC(C)C)C(=O)N[C@H](C(=O)N[C@@H](CCCNC(=N)N)C(=O)N[C@@H](CCC(N)=O)C(=O)N[C@@H](CCCNC(=N)N)C(=O)N[C@@H](Cc1ccc(O)cc1)C(N)=O)[C@@H](C)O)C(C)C)[C@@H](C)O` [Compound 105, N{alpha-4}-(3-methylbutanoyl)-N{epsilon-7}-(6-[(4S)-4-carboxy-4-(17-carboxyheptadecanamido)butanamido]hexanoyl)-[4A,7K,9E,13T,14Q,18Q,22V,28Y,30W,31L]-hPYY(4-36)], the Ki in data set [1] came out at 5.97 nM. In the data set “Solubility determination”, the “Sol6” value was more than 10.0 mg/mL and the “Sol7” value stood at 9.9 mg/mL.
Consider `CC(C)CC(=O)N[C@@H](C)C(=O)N1CCC[C@H]1C(=O)N[C@@H](CCC(=O)O)C(=O)N[C@@H](CCCCNC(=O)CCCCCNC(=O)CC[C@H](NC(=O)CCCCCCCCCCCCCCCCC(=O)O)C(=O)O)C(=O)N1CCC[C@H]1C(=O)N[C@@H](CCC(=O)O)C(=O)N[C@@H](CCC(=O)O)C(=O)N1CCC[C@H]1C(=O)N[C@@H](C)C(=O)N[C@H](C(=O)N1CCC[C@H]1C(=O)N[C@@H](CCC(=O)O)C(=O)N[C@@H](CCC(=O)O)C(=O)N[C@@H](CC(C)C)C(=O)N[C@@H](CCC(N)=O)C(=O)N[C@@H](CCCNC(=N)N)C(=O)N[C@@H](Cc1ccc(O)cc1)C(=O)N[C@@H](Cc1ccc(O)cc1)C(=O)N[C@H](C(=O)N[C@@H](CO)C(=O)N[C@@H](CC(C)C)C(=O)N[C@@H](CCCNC(=N)N)C(=O)N[C@@H](Cc1c[nH]cn1)C(=O)N[C@@H](Cc1ccc(O)cc1)C(=O)N[C@@H](Cc1ccc(O)cc1)C(=O)N[C@@H](CC(N)=O)C(=O)N[C@@H](Cc1c[nH]c2ccccc12)C(=O)N[C@@H](CC(C)C)C(=O)N[C@H](C(=O)N[C@@H](CCCNC(=N)N)C(=O)N[C@@H](CCC(N)=O)C(=O)N[C@@H](CCCNC(=N)N)C(=O)N[C@@H](Cc1ccc(O)cc1)C(N)=O)[C@@H](C)O)C(C)C)[C@@H](C)O` [Compound 42, N{alpha-4}-(3-methylbutanoyl)-N{epsilon-7}-(6-[(4S)-4-carboxy-4-(17-carboxyheptadecanamido)butanamido]hexanoyl)[4A,7K,9E,11P,13T,18Q,22V,28Y,30W,31L]-hPYY(4-36)], for which, in data set [1], the Ki was found to be 1.98 nM. In addition, in the data set “Solubility determination”, the “Sol6” value was determined as 9.8 mg/mL and the “Sol7” value amounted to 9.9 mg/mL.
On the same counts, the results for `CC[C@H](C)[C@H](NC(=O)[C@H](CCC(=O)O)NC(=O)[C@H](CCC(=O)O)NC(=O)[C@@H]1CCCN1C(=O)[C@@H](NC(=O)[C@H](C)NC(=O)[C@H](C)NC(=O)[C@H](CCC(=O)O)NC(=O)[C@H](CCC(=O)O)NC(=O)[C@@H]1CCCN1C(=O)[C@H](CCCCNC(=O)CCCCCNC(=O)CC[C@H](NC(=O)CCCCCCCCCCCCCCCCC(=O)O)C(=O)O)NC(=O)[C@H](C)NC(=O)[C@@H]1CCCN1C(=O)[C@H](C)NC(=O)CC(C)C)[C@@H](C)O)C(=O)N[C@@H](CCC(N)=O)C(=O)N[C@@H](CCCNC(=N)N)C(=O)N[C@@H](Cc1ccc(O)cc1)C(=O)N[C@@H](Cc1ccc(O)cc1)C(=O)N[C@H](C(=O)N[C@@H](C)C(=O)N[C@@H](CC(C)C)C(=O)N[C@@H](CCCNC(=N)N)C(=O)N[C@@H](Cc1c[nH]cn1)C(=O)N[C@@H](Cc1ccc(O)cc1)C(=O)N[C@@H](Cc1ccc(O)cc1)C(=O)N[C@@H](CC(N)=O)C(=O)N[C@@H](Cc1c[nH]c2ccccc12)C(=O)N[C@@H](CC(C)C)C(=O)N[C@H](C(=O)N[C@@H](CCCNC(=N)N)C(=O)N[C@@H](CCC(N)=O)C(=O)N[C@@H](CCCNC(=N)N)C(=O)N[C@@H](Cc1ccc(O)cc1)C(N)=O)[C@@H](C)O)C(C)C` [Compound 120, N{alpha-4}-(3-methylbutanoyl)-N{epsilon-7}-(6-[(4S)-4-carboxy-4-(17-carboxyheptadecanamido)butanamido]hexanoyl)-[4A,6A,7K,9E,11A,13T,17I,18Q,22V,23A,28Y,30W,31L]-hPYY(4-36)] are 1.49 nM, 0.0 mg/mL and 0.2 mg/mL.
On the same counts, the results for `CC(C)CC(=O)N[C@@H](C)C(=O)N1CCC[C@H]1C(=O)N[C@@H](CCC(=O)O)C(=O)N[C@@H](CCCCNC(=O)CCCCCNC(=O)CC[C@H](NC(=O)CCCCCCCCCCCCCCCCC(=O)O)C(=O)O)C(=O)N1CCC[C@H]1C(=O)N[C@@H](CCC(=O)O)C(=O)N[C@@H](C)C(=O)N[C@@H](CC(=O)O)C(=O)N[C@@H](C)C(=O)N[C@@H](CO)C(=O)N1CCC[C@H]1C(=O)N[C@@H](CCC(=O)O)C(=O)N[C@@H](CCC(=O)O)C(=O)N[C@@H](CC(C)C)C(=O)N[C@@H](CCC(N)=O)C(=O)N[C@@H](CCCNC(=N)N)C(=O)N[C@@H](Cc1ccc(O)cc1)C(=O)N[C@@H](Cc1ccc(O)cc1)C(=O)N[C@H](C(=O)N[C@@H](CCC(N)=O)C(=O)N[C@@H](CC(C)C)C(=O)N[C@@H](CCCNC(=N)N)C(=O)N[C@@H](Cc1c[nH]cn1)C(=O)N[C@@H](Cc1ccc(O)cc1)C(=O)N[C@@H](Cc1ccc(O)cc1)C(=O)N[C@@H](CC(N)=O)C(=O)N[C@@H](Cc1c[nH]c2ccccc12)C(=O)N[C@@H](CC(C)C)C(=O)N[C@H](C(=O)N[C@@H](CCCNC(=N)N)C(=O)N[C@@H](CCC(N)=O)C(=O)N[C@@H](CCCNC(=N)N)C(=O)N[C@@H](Cc1ccc(O)cc1)C(N)=O)[C@@H](C)O)C(C)C` [Compound 121, N{alpha-4}-(3-methylbutanoyl)-N{epsilon-7}-(6-[(4S)-4-carboxy-4-(17-carboxyheptadecanamido)butanamido]hexanoyl)-[4A,7K,9E,10A,18Q,22V,23Q,28Y,30W,31L]-hPYY(4-36)] are 1.45 nM, 9.1 mg/mL and 8.9 mg/mL.
On the same counts, the results for `CC(C)CC(=O)N[C@@H](C)C(=O)N1CCC[C@H]1C(=O)N[C@@H](CCC(=O)O)C(=O)N[C@@H](CCCCNC(=O)CCCCCNC(=O)CC[C@H](NC(=O)CCCCCCCCCCCCCCCCC(=O)O)C(=O)O)C(=O)N1CCC[C@H]1C(=O)N[C@@H](CCC(=O)O)C(=O)N[C@@H](CCC(=O)O)C(=O)N[C@@H](CC(=O)O)C(=O)N[C@@H](C)C(=O)N[C@H](C(=O)N1CCC[C@H]1C(=O)N[C@@H](CCC(=O)O)C(=O)N[C@@H](CCC(=O)O)C(=O)N[C@@H](CCC(=O)O)C(=O)N[C@@H](CCC(N)=O)C(=O)N[C@@H](CCCNC(=N)N)C(=O)N[C@@H](Cc1ccc(O)cc1)C(=O)N[C@@H](Cc1ccc(O)cc1)C(=O)N[C@H](C(=O)N[C@@H](CO)C(=O)N[C@@H](CC(C)C)C(=O)N[C@@H](CCCNC(=N)N)C(=O)N[C@@H](Cc1c[nH]cn1)C(=O)N[C@@H](Cc1ccc(O)cc1)C(=O)N[C@@H](Cc1ccc(O)cc1)C(=O)N[C@@H](CC(N)=O)C(=O)N[C@@H](Cc1c[nH]c2ccccc12)C(=O)N[C@@H](CC(C)C)C(=O)N[C@H](C(=O)N[C@@H](CCCNC(=N)N)C(=O)N[C@@H](CCC(N)=O)C(=O)N[C@@H](CCCNC(=N)N)C(=O)N[C@@H](Cc1ccc(O)cc1)C(N)=O)[C@@H](C)O)C(C)C)[C@@H](C)O` [Compound 162, N{alpha-4}-(3-methylbutanoyl)-N{epsilon-7}-(6-[(4S)-4-carboxy-4-(17-carboxyheptadecanamido)butanamido]hexanoyl)-[4A,7K,9E,13T,17E,18Q,22V,28Y,30W,31L]-hPYY(4-36)] are 14.9 nM, 9.0 mg/mL and 9.3 mg/mL.

(Values after patent publication US12391737B2, “Soluble NPY2 receptor agonists” (Boehringer Ingelheim International GmbH, priority 2020, dated 2025).)
